According to patent US7148253B2, “4-thio coumarins” (priority 2002, dated 2006):
“And” between values parts separate entries of the source, which are not always exact repeats. Equal entries are not always repeated. Where two headings read alike, the source gives them in different places.

How the values were obtained:
[1] = system: HCV RNA in stably HCV RNA-replicating cell line AVA5; experiment: Primary in vitro anti-HCV screen: intracellular HCV RNA levels in AVA5 cells (branched DNA assay); type: cell-based, Hepatitis C virus; details: for HCV % Control / HCV Copies/ml: AVA5, duplicate cultures
Protocol: Primary in vitro anti-HCV screen. The antiviral activity of test compounds were assayed in the stably HCV RNA-replicating cell line, AVA5, derived by transfection of the human hepatoblastoma cell line, Huh7 (Blight, et al., 2000, Science 290: 1972). The test compounds were added to dividing cultures once daily for three days. The media was changed with each addition of the compounds. […] Intracellular HCV RNA levels and cytotoxicity are assessed 24 hours after the last dose of compound.
(§1) Assays were conducted using a single dose of test compound. Duplicate cultures for HCV RNA levels (on 48-well plates) and triplicate cultures for cytotoxicity (on 96-well plates) are used.
(§2) Intracellular HCV RNA levels were measured using a commercial assay (Veresant®, Bayer Diagnostics, Inc. Ross, et al. (2002) J. Virol. Meth. 101:159–168, Quantitation of hepatitic C virus RNA by third generation branched DNA-based signal amplification assay). Cytotoxicity was measured using an established neutral red dye uptake assay (Korba, B. E. and J. L. Gerin. 1992. Use of a standardized cell culture assay to determine activities of nucleoside analogs against hepatitis B virus relication. Antivir. Res. 19:55–70). HCV RNA levels in the treated cultures are expressed as a percentage of the mean levels of RNA detected in untreated cultures. A level of 30% or less, HCV RNA relative to control cultures may be considered to be a positive antiviral effect. A level of 50% or less, neutral red dye uptake relative to control cultures may be considered to be a cytotoxic effect.

[2] = system: HCV RNA-replicating cell line AVA5; experiment: Normalized Viral Assay; type: cell-based, Hepatitis C virus
Protocol: (§3) Primary in vitro anti-HCV screen. The antiviral activity of test compounds were assayed in the stably HCV RNA-replicating cell line, AVA5, derived by transfection of the human hepatoblastoma cell line, Huh7 (Blight, et al., 2000, Science 290: 1972). The test compounds were added to dividing cultures once daily for three days. The media was changed with each addition of the compounds. Cultures generally start the assay at 30–50% confluence and reach confluence during the last day of treatment.

AVA5 cells = experiment: Secondary dose-response assay: cytotoxicity (CC50)
Protocol: (§4) Dividing cultures of AVA5 cells are treated once daily for three days (media is changed with each addition of compound) with 4 concentrations of test compound (2 cultures per concentration). […] Intracellular HCV RNA levels and cytotoxicity are assessed 24 hours following the last treatment as described for the primary assays. The 50% and 90% effective antiviral concentrations (EC50, EC90) and the 50% cytotoxic concentrations (CC50) are calculated and used to generate Selectivity Indexes (S.I., CC50/EC50). An S.I of 10, or greater, may be considered to be a selective antiviral effect.
(§5) The values presented in Table 6 were calculated by linear regression analysis using data from all treated cultures. The standard deviation was calculated using the error of regression generated from the linear regression analysis.

[3] = system: HCV replicons in AVA5 cell cultures; experiment: Secondary in vitro anti-HCV dose-response assay: intracellular HCV RNA; parameters: Intracellular HCV RNA Levels: dose or concentration left out as unconfirmed; details: for Intracellular HCV RNA Levels: normalized to β-actin RNA
Protocol: as §4, §5
Analysis of intracellular HCV RNA was performed 24 hours following the final treatment. A total of […] were treated a each concentration for each compound. HCV RNA levels were normalized to the level of β-actin RNA in each individual sample.

AVA5 cell line [4] = experiment: MTS Cell Viability
AVA5 cell line [5] = experiment: ATP Cell Viability
[6] = system: AVA5 cell line (derived from human hepatoblastoma cell line Huh7); experiment: Primary screen cytotoxicity: neutral red dye uptake; type: cell-based; details: AVA5
Protocol: as §3, §1, §2

[7] = 10 μM, HCV RNA as percentage of untreated cultures
[8] = 10 μM, once daily for three days
[9] = AVA5, HCV RNA, linear regression
[10] = AVA5, values for α-interferon in IU/ml

O=c1oc2ccccc2c(Sc2ccc(Br)cc2)c1Sc1ccc(F)cc1 [VQ_412]
HCV % Control [1, 7]: 54 % Control and 49 % Control
HCV Copies/ml [1, 8]: 726473 Copies/ml and 656755 Copies/ml

Cc1ccc(Sc2c(Sc3ccc(F)cc3Cl)c3ccccc3oc2=O)cc1C [VQ_437]
HCV % Control [1, 7]: 41 % Control and 38 % Control
HCV Copies/ml [1, 8]: 556515 Copies/ml and 507191 Copies/ml

Cc1cc(C)cc(Sc2c(Sc3cccc(Cl)c3)c3ccccc3oc2=O)c1 [VQ_468]
HCV % Control [1, 7]: 23 % Control and 24 % Control
HCV Copies/ml [1, 8]: 306102 Copies/ml and 318777 Copies/ml

Cc1cc(C)cc(Sc2c(Sc3ccc(F)cc3Cl)c3ccccc3oc2=O)c1 [VQ_473]
HCV % Control [1, 7]: 39 % Control
HCV Copies/ml [1, 8]: 529743 Copies/ml and 523506 Copies/ml

O=c1oc2ccccc2c(Sc2ccc(Br)cc2)c1Sc1ccc(F)cc1 [compound 412]
Normalized Viral Assay ([2]; 1 μM): 55.65
Normalized Viral Assay ([2]; 5 μM): 28.13
Normalized Viral Assay ([2]; 10 μM): 16.13

Cc1ccc(Sc2c(Sc3ccc(F)cc3Cl)c3ccccc3oc2=O)cc1C [compound 437]
Normalized Viral Assay ([2]; 1 μM): 59.33
Normalized Viral Assay ([2]; 5 μM): 34.83
Normalized Viral Assay ([2]; 10 μM): 20.41

Cc1cc(C)cc(Sc2c(Sc3cccc(Cl)c3)c3ccccc3oc2=O)c1 [compound 468]
Normalized Viral Assay ([2]; 1 μM): 72.14
Normalized Viral Assay ([2]; 5 μM): 35.09
Normalized Viral Assay ([2]; 10 μM): 18.06
CC50 (AVA5 cells): > 300 µM
S.I. (CC50/EC90) [3]: >250
Intracellular HCV RNA Levels [3]; 10: 1317765 ± 55645 genomic copies/cell
Intracellular HCV RNA Levels [3]; 30: 473805 ± 21625 genomic copies/cell
Intracellular HCV RNA Levels [3]; 100: 194410 ± 7620 genomic copies/cell
Intracellular HCV RNA Levels [3]; 300: 56535 ± 8005 genomic copies/cell
EC50 [3, 9]: 1200 ± 100 nM
EC90 [3, 9]: 8.3 ± 0.6 µM

Cc1cc(C)cc(Sc2c(Sc3ccc(F)cc3Cl)c3ccccc3oc2=O)c1 [compound 473]
Normalized Viral Assay ([2]; 1 μM): 68.16
Normalized Viral Assay ([2]; 5 μM): 40.79
Normalized Viral Assay ([2]; 10 μM): 12.45

COc1ccc2oc(=O)cc(Sc3ccccc3F)c2c1 [compound 824]
HCV % Control ([1]; 10 μM, HCV RNA as percentage of untreated cultures, listed as VQ_824): 101 % Control and 90 % Control
HCV Copies/ml ([1]; 10 μM, once daily for three days, listed as VQ_824): 1357786 Copies/ml and 1211659 Copies/ml
MTS Cell Viability (AVA5 cell line [4]; 5 μM): 94.56
MTS Cell Viability (AVA5 cell line [4]; 10 μM): 84.15
Normalized Viral Assay ([2]; 5 μM): 52.29
Normalized Viral Assay ([2]; 10 μM): 17.28
ATP Cell Viability (AVA5 cell line [5]; 5 μM): 91.28
ATP Cell Viability (AVA5 cell line [5]; 10 μM): 75.61
Neutral Red % Control ([6]; 10 μM, dye uptake relative to untreated cultures, listed as VQ_824): 99 % Control and 102 % Control
Neutral Red O.D. ([6]; 10 μM, listed as VQ_824): 2.214 O.D. and 2.274 O.D.

COc1ccc2oc(=O)cc(Sc3ccc(F)cc3F)c2c1 [compound 830]
MTS Cell Viability (AVA5 cell line [4]; 1 μM): 112.38
MTS Cell Viability (AVA5 cell line [4]; 5 μM): 101.06
MTS Cell Viability (AVA5 cell line [4]; 10 μM): 98.85
Normalized Viral Assay ([2]; 1 μM): 87.63
Normalized Viral Assay ([2]; 5 μM): 46.87
Normalized Viral Assay ([2]; 10 μM): 40.35
ATP Cell Viability (AVA5 cell line [5]; 1 μM): 106.44
ATP Cell Viability (AVA5 cell line [5]; 5 μM): 97.11
ATP Cell Viability (AVA5 cell line [5]; 10 μM): 104.41

O=c1cc(Sc2ccccc2Cl)c2cc(F)ccc2o1 [compound 894]
HCV % Control ([1]; 10 μM, HCV RNA as percentage of untreated cultures, listed as VQ_894): 95 % Control and 84 % Control
HCV Copies/ml ([1]; 10 μM, once daily for three days, listed as VQ_894): 1277826 Copies/ml and 1128325 Copies/ml
MTS Cell Viability (AVA5 cell line [4]; 1 μM): 104.53
MTS Cell Viability (AVA5 cell line [4]; 5 μM): 83.91
MTS Cell Viability (AVA5 cell line [4]; 10 μM): 81.24
Normalized Viral Assay ([2]; 1 μM): 35.65
Normalized Viral Assay ([2]; 5 μM): 9.04
Normalized Viral Assay ([2]; 10 μM): 6.84
ATP Cell Viability (AVA5 cell line [5]; 1 μM): 113.25
ATP Cell Viability (AVA5 cell line [5]; 5 μM): 109.42
ATP Cell Viability (AVA5 cell line [5]; 10 μM): 58.26
Neutral Red % Control ([6]; 10 μM, dye uptake relative to untreated cultures, listed as VQ_894): 100 % Control and 101 % Control
Neutral Red O.D. ([6]; 10 μM, listed as VQ_894): 2.234 O.D. and 2.257 O.D.

O=c1cc(Sc2ccc(F)cc2Cl)c2cc(F)ccc2o1 [compound 899]
HCV % Control ([1]; 10 μM, HCV RNA as percentage of untreated cultures, listed as VQ_899): 66 % Control and 65 % Control
HCV Copies/ml ([1]; 10 μM, once daily for three days, listed as VQ_899): 886875 Copies/ml and 873484 Copies/ml
MTS Cell Viability (AVA5 cell line [4]; 1 μM): 106.10
MTS Cell Viability (AVA5 cell line [4]; 5 μM): 90.22
MTS Cell Viability (AVA5 cell line [4]; 10 μM): 85.37
Normalized Viral Assay ([2]; 1 μM): 40.10
Normalized Viral Assay ([2]; 5 μM): 10.66
Normalized Viral Assay ([2]; 10 μM): 10.32
ATP Cell Viability (AVA5 cell line [5]; 1 μM): 102.77
ATP Cell Viability (AVA5 cell line [5]; 5 μM): 112.43
ATP Cell Viability (AVA5 cell line [5]; 10 μM): 105.60
Neutral Red % Control ([6]; 10 μM, dye uptake relative to untreated cultures, listed as VQ_899): 100 % Control and 102 % Control
Neutral Red O.D. ([6]; 10 μM, listed as VQ_899): 2.237 O.D. and 2.286 O.D.

O=c1cc(Sc2cc(Cl)ccc2Cl)c2cc(F)ccc2o1 [compound 901]
HCV % Control [1, 7]: 63 % Control
HCV Copies/ml ([1]; 10 μM, once daily for three days, listed as VQ_901): 851852 Copies/ml and 846803 Copies/ml
MTS Cell Viability (AVA5 cell line [4]; 1 μM): 107.32
MTS Cell Viability (AVA5 cell line [4]; 5 μM): 97.37
MTS Cell Viability (AVA5 cell line [4]; 10 μM): 86.10
Normalized Viral Assay ([2]; 1 μM): 24.87
Normalized Viral Assay ([2]; 5 μM): 12.80
Normalized Viral Assay ([2]; 10 μM): 8.34
ATP Cell Viability (AVA5 cell line [5]; 1 μM): 105.62
ATP Cell Viability (AVA5 cell line [5]; 5 μM): 106.63
ATP Cell Viability (AVA5 cell line [5]; 10 μM): 79.01
Neutral Red % Control ([6]; 10 μM, dye uptake relative to untreated cultures, listed as VQ_901): 102 % Control and 100 % Control
Neutral Red O.D. ([6]; 10 μM, listed as VQ_901): 2.287 O.D. and 2.241 O.D.

O=c1cc(Sc2ccccc2F)c2cc(F)ccc2o1 [compound 904]
HCV % Control ([1]; 10 μM, HCV RNA as percentage of untreated cultures, listed as VQ_904): 79 % Control and 75 % Control
HCV Copies/ml ([1]; 10 μM, once daily for three days, listed as VQ_904): 1072174 Copies/ml and 1013181 Copies/ml
MTS Cell Viability (AVA5 cell line [4]; 1 μM): 116.41
MTS Cell Viability (AVA5 cell line [4]; 5 μM): 108.04
MTS Cell Viability (AVA5 cell line [4]; 10 μM): 86.22
Normalized Viral Assay ([2]; 1 μM): 50.52
Normalized Viral Assay ([2]; 5 μM): 37.87
Normalized Viral Assay ([2]; 10 μM): 9.27
ATP Cell Viability (AVA5 cell line [5]; 1 μM): 107.54
ATP Cell Viability (AVA5 cell line [5]; 5 μM): 100.32
ATP Cell Viability (AVA5 cell line [5]; 10 μM): 74.11
Neutral Red % Control ([6]; 10 μM, dye uptake relative to untreated cultures, listed as VQ_904): 100 % Control and 101 % Control
Neutral Red O.D. ([6]; 10 μM, listed as VQ_904): 2.237 O.D. and 2.255 O.D.

α-interferon
HCV % Control ([1]; 10 IU/ml, listed as rHu α-IFN): 5 % Control and 6 % Control
HCV Copies/ml ([1]; 10 IU/ml, listed as rHu α-IFN): 71460 Copies/ml and 85467 Copies/ml
effect on HCV RNA (treatment controls, in words) ([1]; at the control concentrations used): induced significant depressions of HCV RNA replication
approximate EC90 ([1]; positive antiviral control, no cytotoxicity): ~10 IU/ml
CC50 (AVA5 cells; [10]): >10000^1,2 IU/ml
Intracellular HCV RNA Levels ([3]; 1.0 IU/ml): 1169765 ± 37135 genomic copies/cell
Intracellular HCV RNA Levels ([3]; 3.0 IU/ml): 329605 ± 26035 genomic copies/cell
Intracellular HCV RNA Levels ([3]; 10 IU/ml): 103060 ± 14470 genomic copies/cell
EC50 [3, 10]: 1.8 ± 0.2^1 IU/ml
EC90 [3, 10]: 8.2 ± 0.6^1 IU/ml
S.I. (CC50/EC90) ([3]; selectivity index, AVA5): >5556
Neutral Red % Control ([6]; 10 IU/ml, listed as rHu α-IFN): 99 % Control and 103 % Control
Neutral Red O.D. ([6]; 10 IU/ml, listed as rHu α-IFN): 2.217 O.D. and 2.291 O.D.
